Source: patent US20230117034A1, “PYRAZOLOTRIAZINES” (Bayer Aktiengesellschaft, priority 2019, published 2023)

How the values were obtained:
[1] = test system: BRCA1 mRNA expression in MDA-MB-231 cells; assay: qRT-PCR assay: BRCA1 mRNA expression in MDA-MB-231; assay type: cell-based, human; details: Homo sapiens, MDA-MB-231, Inhibition of BRCA1 mRNA expression in MDA-MB-231 cells; median; read-out: RTqPCR-MDA-MB-231, IC50, BRCA1 (median)
Procedure, shortened: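 BRCA1 transcript by RT-qPCR relative to GAPDH, from 600 ng RNA converted to cDNA. MDA-MB-231 cells plated at 200,000/well received test compound continuously for 24 h, starting 24 h post-seeding.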

[2] = test system: MDA-MB-231, human breast cancer cells; assay: Proliferation assay MDA-MB-231 (crystal violet, 4 days); assay type: cell-based; details: Homo sapiens, MDA-MB-231, 96 h, MDA-MB-231 cells, median, read-out: Prolif-MDA MB-231, IC50-[mol/l] (median)
Procedure, shortened: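 IC50 from a 4-parameter fit of crystal violet absorbance (595 nm), scaled between the day-of-dosing plate (0%) and vehicle cells (100%). MDA-MB-231 or CAL-120 cells were treated for 4 days with 0.01–10 micromol/L compound in 0.1% DMSO after 24 h attachment.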

[3] = target: T1, CYCLIN K (nuclear staining in CAL-120 cells) (Homo sapiens, UniProt O75909); assay: CYCLIN K nuclear protein level: immunofluorescence high content analysis (CAL-120); assay type: cell-based; details: 24 h, 50% reduction of nuclear CCNK staining intensity, median, read-out: CYCLIN K degradation IF, DC50-[mol/l] (median)
T1 construct: endogenous in cells; host or cells: CAL-120 human breast cancer cells (DSMZ ACC 459)
Procedure, shortened: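 Readout is automated confocal image analysis of nuclear cyclin K immunofluorescence (Hoechst nuclei) after PFA fixation. Cells were CAL-120, exposed to compound dose-response 24 h at 37 °C; values are DC50 for halving nuclear CCNK signal relative to DMSO and control wells.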

T1 sequence (O75909 whole entry): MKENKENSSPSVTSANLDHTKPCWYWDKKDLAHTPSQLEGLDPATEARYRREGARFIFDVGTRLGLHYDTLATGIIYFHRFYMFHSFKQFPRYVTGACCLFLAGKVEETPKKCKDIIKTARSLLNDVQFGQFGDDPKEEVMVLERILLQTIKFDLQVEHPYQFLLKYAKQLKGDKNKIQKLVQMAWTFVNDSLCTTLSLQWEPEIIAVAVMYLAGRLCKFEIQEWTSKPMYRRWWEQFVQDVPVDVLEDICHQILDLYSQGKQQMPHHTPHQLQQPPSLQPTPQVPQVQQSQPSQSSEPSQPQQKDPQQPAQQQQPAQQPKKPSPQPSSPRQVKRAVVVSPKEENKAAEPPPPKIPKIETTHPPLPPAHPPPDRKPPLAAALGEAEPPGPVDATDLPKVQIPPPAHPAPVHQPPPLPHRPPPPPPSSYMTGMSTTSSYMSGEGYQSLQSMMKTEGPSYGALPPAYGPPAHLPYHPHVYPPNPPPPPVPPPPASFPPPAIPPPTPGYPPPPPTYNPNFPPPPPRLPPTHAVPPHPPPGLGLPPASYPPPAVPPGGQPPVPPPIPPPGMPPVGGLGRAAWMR
T1 sequence (Q9NYV4 whole entry partner): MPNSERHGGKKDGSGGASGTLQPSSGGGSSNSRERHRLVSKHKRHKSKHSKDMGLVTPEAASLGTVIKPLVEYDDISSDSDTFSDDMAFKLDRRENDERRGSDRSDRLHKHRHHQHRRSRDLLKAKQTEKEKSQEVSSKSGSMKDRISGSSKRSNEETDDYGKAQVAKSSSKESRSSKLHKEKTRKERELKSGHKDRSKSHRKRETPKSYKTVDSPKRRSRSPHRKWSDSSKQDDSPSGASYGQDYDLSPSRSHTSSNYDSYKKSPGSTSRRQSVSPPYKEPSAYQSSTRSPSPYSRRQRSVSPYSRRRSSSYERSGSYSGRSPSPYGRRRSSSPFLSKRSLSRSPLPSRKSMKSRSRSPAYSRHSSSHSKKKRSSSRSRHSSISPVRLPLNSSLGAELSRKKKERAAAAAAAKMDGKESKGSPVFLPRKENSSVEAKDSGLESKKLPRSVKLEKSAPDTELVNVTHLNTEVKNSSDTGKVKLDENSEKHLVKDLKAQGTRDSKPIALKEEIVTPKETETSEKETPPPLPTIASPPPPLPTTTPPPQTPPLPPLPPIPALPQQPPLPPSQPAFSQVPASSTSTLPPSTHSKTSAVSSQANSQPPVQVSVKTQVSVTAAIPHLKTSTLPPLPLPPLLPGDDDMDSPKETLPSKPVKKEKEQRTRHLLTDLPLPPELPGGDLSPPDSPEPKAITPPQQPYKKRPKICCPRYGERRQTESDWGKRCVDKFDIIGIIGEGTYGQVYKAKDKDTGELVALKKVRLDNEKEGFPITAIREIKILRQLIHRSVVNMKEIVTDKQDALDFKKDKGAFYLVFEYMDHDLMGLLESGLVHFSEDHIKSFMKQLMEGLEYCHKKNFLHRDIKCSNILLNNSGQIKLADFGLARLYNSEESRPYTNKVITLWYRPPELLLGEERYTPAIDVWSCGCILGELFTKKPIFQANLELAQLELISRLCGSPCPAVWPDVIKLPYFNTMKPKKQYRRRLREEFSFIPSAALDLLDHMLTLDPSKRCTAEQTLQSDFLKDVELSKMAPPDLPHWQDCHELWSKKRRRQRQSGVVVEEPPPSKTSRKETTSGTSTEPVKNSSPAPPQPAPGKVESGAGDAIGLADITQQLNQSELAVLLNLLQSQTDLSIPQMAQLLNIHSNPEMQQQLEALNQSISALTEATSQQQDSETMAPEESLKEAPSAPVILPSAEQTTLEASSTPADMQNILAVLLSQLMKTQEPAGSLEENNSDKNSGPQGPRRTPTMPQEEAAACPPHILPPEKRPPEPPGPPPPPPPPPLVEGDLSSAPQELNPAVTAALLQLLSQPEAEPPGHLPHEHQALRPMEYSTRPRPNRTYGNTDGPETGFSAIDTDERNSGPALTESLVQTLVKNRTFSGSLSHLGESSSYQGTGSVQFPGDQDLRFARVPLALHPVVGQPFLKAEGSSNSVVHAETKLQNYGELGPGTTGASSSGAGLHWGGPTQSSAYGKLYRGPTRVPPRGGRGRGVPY

SMILES	IC50 [1] [nM]	IC50 [2] [nM]	DC50 [3] [nM]
CCNc1nc(NCc2nc3ccccc3[nH]2)n2ncc(Br)c2n1 [Example 227, N4-(1H-benzimidazol-2-ylmethyl)-8-bromo-N2-ethyl-pyrazolo[1,5-a][1,3,5]triazine-2,4-diamine]	15.3	57.9	2.7
COc1cccc2[nH]c(CNc3nc(N4C[C@@H](C)N[C@@H](C)C4)nc4c(C5CC5)cnn34)nc12 [Example 212, 8-cyclopropyl-2-[(3R,5S)-3,5-dimethylpiperazin-1-yl]-N-[(4-methoxy-1H-benzimidazol-2-yl)methyl]pyrazolo[1,5-a][1,3,5]triazin-4-amine]	5.49	5.45	0.47
CN1C[C@@H]2C[C@H]1CN2c1nc(NCc2nc3ccccc3[nH]2)n2ncc(Br)c2n1 [Example 219, N-[(1H-benzimidazol-2-yl)methyl]-8-bromo-2-[(1S,4S)-5-methyl-2,5-diazabicyclo[2.2.1]heptan-2-yl]pyrazolo[1,5-a][1,3,5]triazin-4-amine]	11.6	50.3	1.23
CN(CC(C)(C)O)c1nc(NCc2nc3ccccc3[nH]2)n2ncc(Br)c2n1 [Example 238, 1-[(4-{[(1H-benzimidazol-2-yl)methyl]amino}-8-bromopyrazolo[1,5-a][1,3,5]triazin-2-yl)(methyl)amino]-2-methylpropan-2-ol]	> 12.4	40.1	4.19
COc1cccc2[nH]c(CNc3nc(N4CCNCC4)nc4c(C5CC5)cnn34)nc12 [Example 211, 8-cyclopropyl-N-[(4-methoxy-1H-benzimidazol-2-yl)methyl]-2-(piperazin-1-yl)pyrazolo[1,5-a][1,3,5]triazin-4-amine]	4.24	7.03	0.478
COC(C)(C)CNc1nc(NCc2nc3ccccc3[nH]2)n2ncc(Br)c2n1 [Example 236, N4-(1H-benzimidazol-2-ylmethyl)-8-bromo-N2-(2-methoxy-2-methyl-propyl)pyrazolo[1,5-a][1,3,5]triazine-2,4-diamine]	20.4	90.5	1.72

Stronger by IC50 [1], values ahead:

IC50 [1] [nM]	IC50 [2] [nM]	DC50 [3] [nM]	SMILES
0.829	1.69	0.0954	Cc1ccc2[nH]c(CNc3nc(N4C[C@@H](C)N[C@@H](C)C4)nc4c(C5CC5)cnn34)nc2c1 [Example 194, 8-cyclopropyl-2-[(3R,5S)-3,5-dimethylpiperazin-1-yl]-N-[(5-methyl-1H-benzimidazol-2-yl)methyl]pyrazolo[1,5-a][1,3,5]triazin-4-amine]
3.32	10.2	0.103	Fc1cccc2[nH]c(CNc3nc(N4CCNCC4)nc4c(C5CC5)cnn34)nc12 [Example 182, 8-cyclopropyl-N-[(4-fluoro-1H-benzimidazol-2-yl)methyl]-2-(piperazin-1-yl)pyrazolo[1,5-a][1,3,5]triazin-4-amine]
0.419	2.25	0.415	C[C@@H]1CN(c2nc(NCc3nc4c(F)c(F)ccc4[nH]3)n3ncc(C4CC4)c3n2)C[C@H](C)N1 [Example 170, 8-cyclopropyl-N-[(4,5-difluoro-1H-benzimidazol-2-yl)methyl]-2-[(3R,5S)-3,5-dimethylpiperazin-1-yl]pyrazolo[1,5-a][1,3,5]triazin-4-amine]
2.27	8.06	0.199	Cc1ccc2[nH]c(CNc3nc(N4CCN(C)CC4)nc4c(C5CC5)cnn34)nc2c1 [Example 210, 8-cyclopropyl-N-[(5-methyl-1H-benzimidazol-2-yl)methyl]-2-(4-methylpiperazin-1-yl)pyrazolo[1,5-a][1,3,5]triazin-4-amine]
1.98	10.7	0.318	OC[C@@H]1CCCCN1c1nc(NCc2nc3c(F)cccc3[nH]2)n2ncc(C3CC3)c2n1 [Example 189, [(2S)-1-(8-cyclopropyl-4-{[(4-fluoro-1H-benzimidazol-2-yl)methyl]amino}pyrazolo[1,5-a][1,3,5]triazin-2-yl)piperidin-2-yl]methanol]
